Columns and labels:
JFH1 HCVcc = test: HCVcc binding assay (real-time PCR of vRNA, Huh7.5.1 cells); assay type: cell-based, Hepatitis C virus; settings: 2.7 μM, 2 hours at 4° C., relative to scrambled peptide
Method: FIGS. 5A-5D. hEP inhibits HCV entry at the attachment step. (A) HCVcc-luc was first mixed with either scrambled peptide or hEP-2 (20 μg/ml) for one hour at room temperature. In Group 1, mixed virus was directly added to Huh7.5.1 cells, whereas in Group 2, virus was purified through ultracentrifuge at 28,000×g for 4 hours in order to remove peptide, and then used to infect Huh7.5.1 cells. **p<0.005. (B) The kinetics of hEP- and bafilomycin A1-mediated inhibition were determined by time-of-addition assays, as described in the examples section. Fitted lines represent sigmoidal time-dependent curves (mean of n=3; error bars, s.d.). […] Heparin (200 μg/ml), anti-CD81 monoclonal antibody (5 μg/ml), hEP (20 μg/ml), or bafilomycin A1 (10 nM) were present in the media either continuously, during the 4° C. incubation only (attachment), or during the 37° C. incubation phase only (post-attachment). % Inhibition was calculated as 100-percent infection relative to control infections containing DMSO or an isotype antibody control containing 0.01% sodium azide (for anti-CD81 only) (mean of n=3; error bars, s.d.). (D) The effects of hEP (2.7 μM) or scrambled peptide on HCV binding were determined as described in the examples section. Results were calculated as relative RNA copies with numbers obtained from the scrambled peptide treated wells set to 100 (mean of n=3; error bars, s.d.). **p<0.005. […]

LDLR = test: Surface LDLR level on Huh7.5.1 cells by flow cytometry; assay type: cell-based; settings: various time periods
Method: FIGS. 4A-4C. (A) Huh7.5.1 cells seeded in a 12-well plate were treated with hEP-2 (20 μg/ml) for indicated time periods. Cells were stained with a mouse IgG (istotype control) or the anti-LDLR antibody followed by flow cytometric analysis. An overlay of 7 histograms is presented and the Δ median fluorescence intensity (ΔMFI, LDLR stain minus isotype control stain) of each sample is indicated to the upper right of the figure. (B) Cells were stained with anti-CD81 antibody and analyzed similarly as in A. (C) Immunonblots of SR-BI, CLDN1, and OCLN in the presence of hEP-2 or scrambled peptide.

EELRVRLASHLRKLRKRLLRDADDLQKRLAVYEEQAQQIRLQAEAFQARLKSWFEPLVEDM [hEP-1]
Amount of viral RNA (vRNA) bound to cells (JFH1 HCVcc): decreased significantly

B1: hEP: human apoE dual-domain peptide: helix 4 of N-terminal domain plus major lipid-binding region; expressed in bacteria (protein)
peptide: EELRVRLASHLRKLRKRLLRDADDLQKRLAVYEEQAQQIRLQAEAFQARLKSWFEPLVEDM
Change of surface LDLR (LDLR): did not cause detectable change

Source: patent US10125184B2, “Apolipoprotein E polypeptides and their use” (priority 2011, dated 2018)
